Experimental findings from paper PMC11344421, “Polyphyllin I exerts anti-hepatocellular carcinoma activity by targeting ZBTB16 to activate the PPARγ/RXRα signaling pathway” (Chinese Medicine, 2024) are described below.

For the experiment, the target named is T1, recombinant human (rh) ZBTB16 protein (Homo sapiens, UniProt Q05516).
T1 construct: recombinant human protein immobilised on sensor
T1 sequence (Q05516 1-673): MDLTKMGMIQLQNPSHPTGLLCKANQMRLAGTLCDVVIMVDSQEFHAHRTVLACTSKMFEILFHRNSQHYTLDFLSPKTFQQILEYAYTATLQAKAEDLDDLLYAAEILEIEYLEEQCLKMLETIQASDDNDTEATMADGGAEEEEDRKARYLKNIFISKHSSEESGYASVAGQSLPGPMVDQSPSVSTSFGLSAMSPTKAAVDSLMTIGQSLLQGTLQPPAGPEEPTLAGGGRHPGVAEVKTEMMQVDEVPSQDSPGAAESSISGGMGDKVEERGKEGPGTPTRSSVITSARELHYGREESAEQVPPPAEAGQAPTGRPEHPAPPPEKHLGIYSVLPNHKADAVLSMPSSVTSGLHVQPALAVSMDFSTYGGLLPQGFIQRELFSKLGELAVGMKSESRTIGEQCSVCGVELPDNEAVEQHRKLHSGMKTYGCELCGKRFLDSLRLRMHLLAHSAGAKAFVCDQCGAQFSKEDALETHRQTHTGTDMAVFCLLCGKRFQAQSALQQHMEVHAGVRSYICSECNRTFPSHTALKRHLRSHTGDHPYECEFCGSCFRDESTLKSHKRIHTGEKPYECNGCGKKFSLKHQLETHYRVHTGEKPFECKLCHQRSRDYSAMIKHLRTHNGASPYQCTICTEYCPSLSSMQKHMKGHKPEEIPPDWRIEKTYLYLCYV
Briefly: surface plasmon resonance (OpenSPR, ZBTB16 immobilised by EDC/NHS). In kind it is binding.

In general, Kd refers to the equilibrium constant for the complex coming apart.

For the compound `C[C@@H]1CC[C@@]2(OC1)O[C@H]1C[C@H]3[C@@H]4CC=C5C[C@@H](O[C@@H]6O[C@H](CO)[C@@H](O[C@@H]7O[C@@H](CO)[C@H](O)[C@H]7O)[C@H](O)[C@H]6O[C@@H]6O[C@@H](C)[C@H](O)[C@@H](O)[C@H]6O)CC[C@]5(C)[C@H]4CC[C@]3(C)[C@H]1[C@@H]2C` [Polyphyllin I], the Kd is 5.5 µM.
